According to ChEMBL document CHEMBL1201862, “PubChem BioAssay data set” (2004):
Calls of active or inactive are those of the source.

Assays:
[1] = target: T1, Cannabinoid receptor 2 (Homo sapiens, UniProt P34972); test: SAR analysis of antagonists of the Cannabinoid Receptor 2 using an Image-Based Assay - Set 3. [Related pubchem assays (depositor defined):AID2013, AID2026]; format: functional
[2] = target: T2, G-protein coupled receptor 35 (Homo sapiens, UniProt Q9HC97); test: SAR analysis of Agonists of the GPR35 Receptor using an Image-Based Assay - Set 4. [Related pubchem assays (depositor defined):AID2013, AID2026]; format: functional
T2 sequence (Q9HC97 whole entry): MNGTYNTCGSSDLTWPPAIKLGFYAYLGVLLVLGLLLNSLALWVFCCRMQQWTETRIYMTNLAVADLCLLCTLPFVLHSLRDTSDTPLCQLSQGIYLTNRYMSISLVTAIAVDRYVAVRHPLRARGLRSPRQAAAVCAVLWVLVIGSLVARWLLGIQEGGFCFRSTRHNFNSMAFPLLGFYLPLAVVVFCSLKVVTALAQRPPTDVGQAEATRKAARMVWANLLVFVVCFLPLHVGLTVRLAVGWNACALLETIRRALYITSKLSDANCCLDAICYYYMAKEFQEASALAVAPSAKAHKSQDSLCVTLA

[3] = target: T3, Cannabinoid receptor 1 (Homo sapiens, UniProt P21554); test: SAR analysis of agonists of the Cannabinoid Receptor 1 using an Image-Based Assay - Set 4. [Related pubchem assays (depositor defined):AID2013, AID2026]; format: functional
T3 sequence (P21554 whole entry): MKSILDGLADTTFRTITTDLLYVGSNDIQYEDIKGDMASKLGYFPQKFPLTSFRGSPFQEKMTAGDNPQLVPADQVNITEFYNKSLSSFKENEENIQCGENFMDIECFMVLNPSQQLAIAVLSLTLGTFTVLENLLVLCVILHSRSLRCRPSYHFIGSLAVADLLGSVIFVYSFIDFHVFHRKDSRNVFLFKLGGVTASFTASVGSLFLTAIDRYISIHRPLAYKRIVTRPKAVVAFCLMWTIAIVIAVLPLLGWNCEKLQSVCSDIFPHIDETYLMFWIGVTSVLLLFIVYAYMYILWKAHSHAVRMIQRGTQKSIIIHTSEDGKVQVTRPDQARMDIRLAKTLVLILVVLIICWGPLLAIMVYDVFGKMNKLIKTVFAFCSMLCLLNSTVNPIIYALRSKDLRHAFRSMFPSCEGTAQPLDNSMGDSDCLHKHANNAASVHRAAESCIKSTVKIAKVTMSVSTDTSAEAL

[4] = target: G-protein coupled receptor 55 (Homo sapiens, UniProt Q9Y2T6); test: SAR Analysis of Selective Antagonists of GPR55 using an Image-Based Assay - Set 4. [Related pubchem assays (depositor defined):AID2013, AID2026]; format: functional;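 note: antagonism of response to 5 µM lysophosphatidylinositol agonist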
Chain of G-protein coupled receptor 55 (Q9Y2T6 whole entry): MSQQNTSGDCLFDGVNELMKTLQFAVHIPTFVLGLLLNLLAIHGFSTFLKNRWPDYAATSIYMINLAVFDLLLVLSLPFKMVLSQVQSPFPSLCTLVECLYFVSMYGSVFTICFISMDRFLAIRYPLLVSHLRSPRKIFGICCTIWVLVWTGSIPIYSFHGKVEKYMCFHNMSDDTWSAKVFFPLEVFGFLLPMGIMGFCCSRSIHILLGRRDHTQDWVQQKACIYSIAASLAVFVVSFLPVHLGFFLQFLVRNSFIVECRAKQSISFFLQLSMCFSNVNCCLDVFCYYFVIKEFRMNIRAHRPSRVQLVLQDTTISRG

[5] = target: T1, Cannabinoid receptor 2; test: SAR analysis of agonists of the Cannabinoid Receptor 2 using an Image-Based Assay - Set 3. [Related pubchem assays (depositor defined):AID2013, AID2026]; format: functional
[6] = target: T2, G-protein coupled receptor 35; test: SAR analysis of Antagonists of the GPR35 Receptor using an Image-Based Assay - Set 6. [Related pubchem assays (depositor defined):AID2013, AID2026]; format: functional
[7] = target: T3, Cannabinoid receptor 1; test: SAR analysis of antagonists of the Cannabinoid Receptor 1 using an Image-Based Assay - Set 4. [Related pubchem assays (depositor defined):AID2013, AID2026]; format: functional
[8] = Luminescence Cell-Based Dose Retest to Confirm Activators of 5'UTR Stem-Loop Driven Alpha-Synuclein mRNA Translation in H4 Neuroglioblastoma Cells. [Related pubchem assays (depositor defined):AID1813, AID1829]; format: functional
[9] = Luminescence Cell-Based Dose Response HTS to Identify Inhibitors of Luciferase Translation or Activity in H4-C Neuroglioblastoma Cells. [Related pubchem assays: 1813 (Primary HTS), 1827 (Project Summary)]; format: functional
[10] = system: BJ; test: cytotoxicity toward BJ-TERT-LT-ST fibroblasts, dose response, cell-based, RAS-independent, luminescence (AID 1935); format: functional; conditions: Homo sapiens;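 note: BJ fibroblasts immortalized with TERT plus LT and ST oncogenes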
[11] = cells; format: functional, cell-based
[12] = luciferase reporter signal reduction – luminescence, H4-C neuroglioblastoma cells, dose response (AID 2458); format: functional, cell-based;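 note: H4 neuroglioblastoma cells stably carrying a luciferase reporter gene fusion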
[13] = cytotoxicity toward DRD oncogenic fibroblasts, dose response, cell-based, non-viral oncogenic, luminescence (AID 1934); format: functional; conditions: Homo sapiens
[14] = Luminescence Cell-Based Dose Response HTS to Identify Activators of Luciferase Translation or Activity in H4-C Neuroglioblastoma Cells. [Related pubchem assays: 1829 (Project Summary), 1814 (Primary HTS)]; format: functional
[15] = Luminescence Cell-Based Dose Confirmation HTS to Identify Inhibitors of 5'UTR Stem-Loop Driven Alpha-Synuclein mRNA Translation in H4 Neuroglioblastoma Cells. [Related pubchem assays: 1827 (Project Summary), 1813 (Primary HTS)]; format: functional
[16] = inhibitors of firefly luciferase expression or activity, dose response, H4 neuroglioma cells, luminescence (AID 1990); format: functional, cell-based
[17] = Luminescence Cell-Based Dose Response HTS to Identify Inhibitors of 5'UTR Stem-Loop Driven Prion Protein mRNA Translation in H4 Neuroglioblastoma Cells. [Related pubchem assays: 1827 (Project Summary), 1813 (Primary HTS)]; format: functional
[18] = inhibitors of SNCA 5'UTR-driven reporter translation, confirmation, H4 neuroglioma cells, luminescence (AID 1988); format: functional, cell-based
[19] = Luminescence Cell-Based Dose Response HTS to Identify Activators of 5'UTR Stem-Loop Driven Prion Protein mRNA Translation in H4-C Neuroglioblastoma Cells. [Related pubchem assays: 1829 (Project Summary), 1814 (Primary HTS)]; format: functional
[20] = system: BJ; test: cells; format: functional, cell-based; conditions: Homo sapiens
[21] = system: BJ; test: cytotoxicity toward BJ-TERT fibroblasts, dose response, cell-based, RAS-independent, luminescence (AID 1933); format: functional; conditions: Homo sapiens
[22] = inhibitors of SNCA 5'UTR-driven translation, confirmation, luminescence, H4 neuroglioblastoma cells, dose confirmation (AID 2454); format: functional, cell-based;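 note: H4 neuroglioblastoma cells carrying an alpha-synuclein 5'UTR luciferase reporter; potency for inhibition of the luciferase signal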
[23] = Luminescence Cell-Based Dose HTS Response to Identify Inhibitors of 5'UTR Stem-Loop Driven Prion Protein mRNA Translation in H4-C Neuroglioblastoma Cells. [Related pubchem assays (depositor defined):AID1814, AID1827]; format: functional
[24] = target: T4, Kappa-type opioid receptor (Homo sapiens, UniProt P41145); test: KOR antagonist analogs, beta-arrestin recruitment, SAR follow-up, cell-based, luminescence, set 2 (AID 2495); format: functional
T4 sequence (P41145 whole entry): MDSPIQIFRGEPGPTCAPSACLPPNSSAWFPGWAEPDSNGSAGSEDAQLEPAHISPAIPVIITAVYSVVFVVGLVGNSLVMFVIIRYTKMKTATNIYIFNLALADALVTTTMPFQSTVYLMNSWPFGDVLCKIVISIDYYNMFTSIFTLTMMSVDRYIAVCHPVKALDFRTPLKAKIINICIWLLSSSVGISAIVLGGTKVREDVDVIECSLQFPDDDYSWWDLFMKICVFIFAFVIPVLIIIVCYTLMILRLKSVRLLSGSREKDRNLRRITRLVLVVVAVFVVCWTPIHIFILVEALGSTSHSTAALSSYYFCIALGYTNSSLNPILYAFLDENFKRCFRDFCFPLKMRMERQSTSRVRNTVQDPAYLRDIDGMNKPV

[25] = target: T4, Kappa-type opioid receptor; test: SAR analysis of Agonists of the Kappa Opioid Receptor (KOR) using an Image-Based Assay - Set 2. [Related pubchem assays (depositor defined):AID1777, AID1786, AID1966, AID2133, AID2136, AID2284, AID2285, AID2359]; format: functional
[26] = target: T5, Delta-type opioid receptor (Homo sapiens, UniProt P41143); test: SAR Analysis of Agonists of the DOR Receptor using an Image-Based Assay - Set 2. [Related pubchem assays (depositor defined):AID1777, AID1785, AID1786, AID1966, AID2133, AID2136, AID2284, AID2285, AID2370]; format: functional
T5 sequence (P41143 whole entry): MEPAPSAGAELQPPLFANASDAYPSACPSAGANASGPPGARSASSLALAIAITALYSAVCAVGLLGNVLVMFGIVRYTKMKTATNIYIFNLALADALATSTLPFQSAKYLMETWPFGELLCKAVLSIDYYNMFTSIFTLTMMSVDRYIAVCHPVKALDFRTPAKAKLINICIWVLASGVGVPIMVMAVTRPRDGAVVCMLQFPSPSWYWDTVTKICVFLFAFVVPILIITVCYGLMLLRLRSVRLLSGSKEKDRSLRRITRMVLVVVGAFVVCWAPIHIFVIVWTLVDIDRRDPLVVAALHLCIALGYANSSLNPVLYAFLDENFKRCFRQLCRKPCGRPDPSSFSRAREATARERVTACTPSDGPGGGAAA

[27] = target: T6, Mu-type opioid receptor (Homo sapiens, UniProt P35372); test: SAR Analysis of Agonists of the MOR Receptor using an Image-Based Assay - Set 2. [Related pubchem assays (depositor defined):AID1777, AID1785, AID1786, AID1966, AID2133, AID2136, AID2284, AID2285, AID2352]; format: functional
T6 sequence (P35372 whole entry): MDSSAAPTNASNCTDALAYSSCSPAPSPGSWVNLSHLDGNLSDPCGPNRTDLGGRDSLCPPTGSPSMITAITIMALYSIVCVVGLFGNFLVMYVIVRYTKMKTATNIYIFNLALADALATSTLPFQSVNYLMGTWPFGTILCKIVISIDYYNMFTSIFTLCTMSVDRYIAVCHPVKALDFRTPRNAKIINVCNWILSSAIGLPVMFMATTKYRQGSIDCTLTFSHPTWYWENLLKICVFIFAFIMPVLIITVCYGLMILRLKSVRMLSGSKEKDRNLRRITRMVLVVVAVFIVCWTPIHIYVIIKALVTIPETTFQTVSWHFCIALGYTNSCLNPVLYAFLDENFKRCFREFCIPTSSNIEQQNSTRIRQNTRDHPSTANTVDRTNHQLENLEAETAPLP

[28] = target: T4, Kappa-type opioid receptor; test: SAR analysis of small molecule agonists of the kappa opioid receptor via a luminescent beta-arrestin assay - Set 2. [Related pubchem assays (depositor defined):AID1777, AID1785, AID1786, AID1966, AID2133, AID2136, AID2284, AID449737]; format: functional
[29] = target: T5, Delta-type opioid receptor; test: SAR Analysis of Antagonists of the DOR Receptor using an Image-Based Assay - Set 2. [Related pubchem assays (depositor defined):AID1777, AID1785, AID1786, AID1966, AID2133, AID2136, AID2284, AID2285, AID2357]; format: functional
[30] = target: T6, Mu-type opioid receptor; test: SAR Analysis of Antagonists of the MOR Receptor using an Image-Based Assay - Set 2. [Related pubchem assays (depositor defined):AID1777, AID1785, AID1786, AID1966, AID2133, AID2136, AID2284, AID2285, AID2420]; format: functional
[31] = target: T4, Kappa-type opioid receptor; test: SAR analysis of Antagonists of the Kappa Opioid Receptor (KOR) using an Image-Based Assay - Set 2. [Related pubchem assays (depositor defined):AID1777, AID1785, AID1786, AID1966, AID2133, AID2136, AID2284, AID2285, AID2348]; format: functional
[32] = target: Peroxisome proliferator-activated receptor gamma/Nuclear receptor coactivator 1 (Homo sapiens, UniProt P37231); test: TR-FRET dose response biochemical High Throughput Screening assay for agonists of the steroid receptor coactivator 1 (SRC-1) recruitment by the peroxisome proliferator-activated receptor gamma (PPAR gamma): non-selective agonists. [Related pubchem assays (depositor defined):AID1300, AID1808, AID504735, AID631]; format: protein assay
[33] = target: Peroxisome proliferator-activated receptor gamma/Nuclear receptor coactivator 3 (Homo sapiens, UniProt P37231); test: TR-FRET dose response biochemical High Throughput Screening assay for agonists of the steroid receptor coactivator 3 (SRC-3) recruitment by the peroxisome proliferator-activated receptor gamma (PPAR gamma): non-selective agonists. [Related pubchem assays: 1301 (Confirmation screen.), 1048 (Primary screen.)]; format: functional
Chain of Peroxisome proliferator-activated receptor gamma/Nuclear receptor coactivator 3 (P37231 whole entry): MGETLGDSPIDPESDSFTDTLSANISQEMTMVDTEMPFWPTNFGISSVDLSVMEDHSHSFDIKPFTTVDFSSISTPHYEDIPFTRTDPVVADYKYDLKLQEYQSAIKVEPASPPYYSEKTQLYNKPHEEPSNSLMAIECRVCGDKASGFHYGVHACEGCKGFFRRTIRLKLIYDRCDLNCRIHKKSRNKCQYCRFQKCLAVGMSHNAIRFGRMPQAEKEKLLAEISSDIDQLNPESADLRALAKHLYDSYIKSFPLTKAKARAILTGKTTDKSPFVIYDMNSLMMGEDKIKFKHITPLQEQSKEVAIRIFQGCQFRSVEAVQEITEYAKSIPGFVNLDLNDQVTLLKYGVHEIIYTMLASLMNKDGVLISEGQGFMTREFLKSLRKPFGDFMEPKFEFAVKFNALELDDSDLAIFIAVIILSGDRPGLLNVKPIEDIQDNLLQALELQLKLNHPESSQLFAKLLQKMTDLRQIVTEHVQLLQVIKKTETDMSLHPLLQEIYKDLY
Chain of Peroxisome proliferator-activated receptor gamma/Nuclear receptor coactivator 3 (Q9Y6Q9 whole entry, further chain): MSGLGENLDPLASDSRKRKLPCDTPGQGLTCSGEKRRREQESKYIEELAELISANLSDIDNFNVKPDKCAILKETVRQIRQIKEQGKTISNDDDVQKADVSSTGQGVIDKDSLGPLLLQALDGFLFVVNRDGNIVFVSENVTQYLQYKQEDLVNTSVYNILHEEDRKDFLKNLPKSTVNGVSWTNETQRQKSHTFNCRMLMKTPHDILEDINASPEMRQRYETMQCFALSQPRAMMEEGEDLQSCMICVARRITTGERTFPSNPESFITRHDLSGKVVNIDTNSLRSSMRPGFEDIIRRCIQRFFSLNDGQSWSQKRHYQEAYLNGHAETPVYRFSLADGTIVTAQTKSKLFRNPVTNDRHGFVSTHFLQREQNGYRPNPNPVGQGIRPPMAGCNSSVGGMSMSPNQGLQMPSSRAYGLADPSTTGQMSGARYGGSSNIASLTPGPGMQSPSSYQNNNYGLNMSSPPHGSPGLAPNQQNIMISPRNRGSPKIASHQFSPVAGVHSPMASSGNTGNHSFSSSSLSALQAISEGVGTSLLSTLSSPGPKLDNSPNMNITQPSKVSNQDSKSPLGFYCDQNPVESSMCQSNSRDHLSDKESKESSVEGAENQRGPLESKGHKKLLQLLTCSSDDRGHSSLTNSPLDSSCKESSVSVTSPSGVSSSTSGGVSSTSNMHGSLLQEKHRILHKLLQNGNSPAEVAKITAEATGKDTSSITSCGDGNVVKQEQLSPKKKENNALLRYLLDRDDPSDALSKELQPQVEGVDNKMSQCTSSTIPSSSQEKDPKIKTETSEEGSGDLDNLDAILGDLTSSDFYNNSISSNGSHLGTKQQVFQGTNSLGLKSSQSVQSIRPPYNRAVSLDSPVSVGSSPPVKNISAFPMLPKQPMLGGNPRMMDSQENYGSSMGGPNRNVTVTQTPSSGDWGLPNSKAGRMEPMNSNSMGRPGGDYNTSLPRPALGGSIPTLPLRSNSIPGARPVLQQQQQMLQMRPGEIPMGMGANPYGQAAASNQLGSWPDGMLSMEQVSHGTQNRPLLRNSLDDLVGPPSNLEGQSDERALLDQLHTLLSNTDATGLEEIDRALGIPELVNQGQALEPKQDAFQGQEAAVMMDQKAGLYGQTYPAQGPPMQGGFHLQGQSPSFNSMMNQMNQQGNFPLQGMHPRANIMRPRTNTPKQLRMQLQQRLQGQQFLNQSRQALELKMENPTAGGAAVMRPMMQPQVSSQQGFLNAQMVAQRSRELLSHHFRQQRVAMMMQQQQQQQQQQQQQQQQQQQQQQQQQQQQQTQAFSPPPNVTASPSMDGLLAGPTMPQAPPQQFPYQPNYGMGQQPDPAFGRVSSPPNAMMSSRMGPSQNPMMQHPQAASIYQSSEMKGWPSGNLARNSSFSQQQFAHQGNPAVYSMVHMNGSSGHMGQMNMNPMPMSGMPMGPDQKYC

[34] = target: Peroxisome proliferator-activated receptor gamma/Nuclear receptor coactivator 2 (Homo sapiens, UniProt P37231); test: TR-FRET dose response biochemical High Throughput Screening assay for agonists of the steroid receptor coactivator 2 (SRC-2) recruitment by the peroxisome proliferator-activated receptor gamma (PPAR gamma): non-selective agonists. [Related pubchem assays: 1297, 1032 ]; format: functional
[35] = SV40 cytopathic effect inhibition and cytotoxicity, confirmation, BSC cells, set 3 (AID 485276); format: functional, cell-based
[36] = target: T4, Kappa-type opioid receptor; test: KOR agonist analogs, arrestin-GFP redistribution, SAR follow-up, imaging, image-based, set 3 (AID 488833); format: functional
[37] = target: T6, Mu-type opioid receptor; test: SAR Analysis of Agonists of the MOR Receptor using an Image-Based Assay - Set 3. [Related pubchem assays (depositor defined):AID1777, AID1785, AID1786, AID1966, AID2133, AID2136, AID2284, AID2285, AID2352]; format: functional
[38] = target: T4, Kappa-type opioid receptor; test: SAR analysis of small molecule agonists of the kappa opioid receptor via a luminescent beta-arrestin assay - Set 3. [Related pubchem assays (depositor defined):AID1777, AID1785, AID1786, AID1966, AID2133, AID2136, AID2284, AID2500]; format: functional
[39] = target: T5, Delta-type opioid receptor; test: SAR Analysis of Agonists of the DOR Receptor using an Image-Based Assay - Set 3. [Related pubchem assays (depositor defined):AID1777, AID1786]; format: functional
[40] = target: T7, Sphingosine 1-phosphate receptor 4 (Homo sapiens, UniProt O95977); test: Fluorescence dose response cell-based high throughput screening assay for agonists of the Sphingosine 1-Phosphate Receptor 4 (S1P4). [Related pubchem assays: 1509 (Primary screen.), 1523 (Confirmation screen in triplicates.)]; format: functional
T7 sequence (O95977 whole entry): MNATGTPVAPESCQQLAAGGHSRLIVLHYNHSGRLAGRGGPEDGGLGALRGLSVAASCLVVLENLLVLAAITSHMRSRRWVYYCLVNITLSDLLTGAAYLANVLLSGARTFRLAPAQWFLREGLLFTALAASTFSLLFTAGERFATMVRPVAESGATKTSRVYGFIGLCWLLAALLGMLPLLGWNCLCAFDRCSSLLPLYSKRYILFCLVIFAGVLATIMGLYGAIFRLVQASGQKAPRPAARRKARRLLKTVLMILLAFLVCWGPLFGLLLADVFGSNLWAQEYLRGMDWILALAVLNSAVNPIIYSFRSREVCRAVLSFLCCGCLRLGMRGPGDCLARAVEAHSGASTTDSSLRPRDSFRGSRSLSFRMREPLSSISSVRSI

[41] = target: Sphingosine 1-phosphate receptor 1 (Homo sapiens, UniProt P21453); test: Fluorescence-based counterscreen assay for S1P4 agonists: Cell-based dose response high throughput screening assay to identify agonists of the Sphingosine 1-Phosphate Receptor 1 (S1P1). [Related pubchem assays (depositor defined):AID1509, AID1523, AID1801, AID463107, AID463118, AID463119, AID463122, AID463123, AID463129, AID463225, AID504400, AID504460]; format: functional
Chain of Sphingosine 1-phosphate receptor 1 (P21453 whole entry): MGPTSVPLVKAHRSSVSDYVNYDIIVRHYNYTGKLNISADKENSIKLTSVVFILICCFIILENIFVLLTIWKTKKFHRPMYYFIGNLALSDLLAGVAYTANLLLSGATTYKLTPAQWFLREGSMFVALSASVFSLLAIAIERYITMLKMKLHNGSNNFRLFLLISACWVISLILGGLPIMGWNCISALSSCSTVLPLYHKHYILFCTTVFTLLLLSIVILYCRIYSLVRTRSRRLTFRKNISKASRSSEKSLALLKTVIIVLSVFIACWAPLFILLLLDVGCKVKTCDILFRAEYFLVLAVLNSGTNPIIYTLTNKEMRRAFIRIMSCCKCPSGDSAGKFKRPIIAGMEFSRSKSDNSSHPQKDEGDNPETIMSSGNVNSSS

T1 sequence (P34972 whole entry): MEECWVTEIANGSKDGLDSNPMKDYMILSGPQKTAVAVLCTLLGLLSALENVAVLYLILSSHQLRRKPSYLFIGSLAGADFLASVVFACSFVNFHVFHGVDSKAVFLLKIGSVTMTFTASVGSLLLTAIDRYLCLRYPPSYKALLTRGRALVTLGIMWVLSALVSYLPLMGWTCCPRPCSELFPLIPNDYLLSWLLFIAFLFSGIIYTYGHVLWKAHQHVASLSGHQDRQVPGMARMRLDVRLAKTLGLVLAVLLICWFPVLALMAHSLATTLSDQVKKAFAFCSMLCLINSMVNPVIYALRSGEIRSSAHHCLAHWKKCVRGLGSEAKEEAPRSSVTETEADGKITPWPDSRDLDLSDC

## N=c1c(C(=O)NCc2ccccc2)cc2c(=O)n3ccccc3nc2n1C1CCCC1
[1]
  IC50: > 32 µM (inactive)
[2]
  EC50: > 32 µM (inactive)
[3]
  EC50: > 32 µM (inactive)
[4]
  IC50: 4.1 µM (active)
[5]
  EC50: 1.31 µM (active)
[6]
  IC50: > 32 µM (inactive)
[7]
  IC50: 15.9 µM (inactive)

## Cc1ccc(-c2cc(C(=O)N/N=C/c3c(C)nn(-c4ccccc4)c3C)[nH]n2)s1
[8]
  EC50: 2.69 µM (inconclusive)
[9]
  EC50: 0.806 µM (active)
[10]
  EC50: 0.396 µM (inconclusive)
[11]
  EC50: 4.24 µM (active)
[12]
  EC50: 1.71 µM (active)
[13]
  EC50: 20 µM (inconclusive)
[14]
  EC50: 1.16 µM (inconclusive)
[15]
  EC50: 1.38 µM (active)
[16]
  EC50: 6.26 µM (inconclusive)
[17]
  EC50: 11.6 µM (active)
[18]
  EC50: < 0.1 µM (active)
[19]
  EC50: 0.509 µM (inconclusive)
[20]
  EC50: 46.3 µM (inconclusive)
[21]
  EC50: 0.413 µM (active)
[22]
  EC50: 6.08 µM (active)
[23]
  EC50: 1.23 µM (active)

## CCc1ccc(S(=O)(=O)NCc2ccc(C(=O)NCCc3ccccc3)cc2)cc1
[24]
  IC50: > 20 µM (inactive)
[25]
  EC50: > 32 µM (inactive)
[26]
  EC50: > 32 µM (inactive)
[27]
  EC50: > 32 µM (inactive)
[28]
  EC50: > 20 µM (inactive)
[29]
  IC50: > 32 µM (inactive)
[30]
  IC50: > 32 µM (inactive)
[31]
  IC50: > 32 µM (inactive)

## CC(C)C(OC(=O)c1cc2occc2n1C)C(=O)NCc1ccc2c(c1)OCO2 (stereo unspecified)
[32]
  EC50: > 79.4 µM (inactive)
[33]
  EC50: > 79.4 µM (not active)
[34]
  EC50: > 79.4 µM (not active)

## CC(C)(c1ccc(O)cc1)c1ccc(O)cc1 [BISPHENOL A]
[35]
  IC50: 9.3 µM (active)

## Fc1cccc(F)c1CSc1nnc(-c2ccccn2)n1Cc1cccs1
[36]
  EC50: 20.9 µM (inactive)
[37]
  EC50: > 32 µM (inactive)
[38]
  EC50: 18 µM (inactive)
[39]
  EC50: > 32 µM (inactive)

## Cc1cccc(-n2c(=O)c(C#N)cc3c(=O)n4ccccc4nc32)c1
[40]
  EC50: 4.06 µM (active)
[41]
  EC50: 8.75 µM (active)
